Assay results from ChEMBL document CHEMBL5365529, “Construction and Evaluation of Novel Dual-function Antifungal Inhibitors and Covalent Organic Framework Carriers Based on the Infection Microenvironment” (J Med Chem, 2023).
In brackets after ≈: the same amount, converted by molar mass. Activity calls are given as the source filed them. No cut-off for these calls is given here.

Assays:
[1] = biological target: T1, Lanosterol 14-alpha demethylase (Candida albicans (strain SC5314 / ATCC MYA-2876) (Yeast), UniProt P10613); experiment: Inhibition of CYP51 in Candida albicans SC5314 assessed as unknown sterol level at 4 ug/ml incubated for 16 hrs by GC-MS analysis (reference value: 5.35 %); design: scale not given: the % may be the effect or the level left; conditions: at 4 µg/mL
T1 sequence (P10613 whole entry): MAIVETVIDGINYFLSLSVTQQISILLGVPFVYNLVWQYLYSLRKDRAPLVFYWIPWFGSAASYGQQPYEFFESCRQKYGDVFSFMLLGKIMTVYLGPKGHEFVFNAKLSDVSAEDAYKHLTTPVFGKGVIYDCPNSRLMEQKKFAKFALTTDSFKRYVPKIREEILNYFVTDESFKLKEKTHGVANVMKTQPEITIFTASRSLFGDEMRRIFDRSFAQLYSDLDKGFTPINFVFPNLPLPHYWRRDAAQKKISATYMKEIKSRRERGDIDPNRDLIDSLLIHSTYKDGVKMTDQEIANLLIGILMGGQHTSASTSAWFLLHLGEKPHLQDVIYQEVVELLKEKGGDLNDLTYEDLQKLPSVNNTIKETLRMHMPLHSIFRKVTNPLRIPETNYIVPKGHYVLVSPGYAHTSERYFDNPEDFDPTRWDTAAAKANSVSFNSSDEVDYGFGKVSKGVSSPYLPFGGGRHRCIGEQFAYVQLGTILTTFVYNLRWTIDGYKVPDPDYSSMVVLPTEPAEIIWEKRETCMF

[2] = biological target: T1, Lanosterol 14-alpha demethylase; experiment: Inhibition of CYP51 in Candida albicans SC5314 assessed as lanosterol level at 4 ug/ml incubated for 16 hrs by GC-MS analysis relative to control; design: scale not given: the % may be the effect or the level left; conditions: at 4 µg/mL
[3] = test system: Candida albicans; experiment: Antifungal activity against Candida albicans SC5314 assessed as fungal growth inhibition incubated for 72 hrs by CLSI based susceptibility test; format: functional
[4] = test system: Nakaseomyces glabratus; experiment: Antifungal activity against Candida glabrata assessed as fungal growth inhibition incubated for 72 hrs by CLSI based susceptibility test; format: functional
[5] = test system: Candida tropicalis; experiment: Antifungal activity against Candida tropicalis ATCC 1369 assessed as fungal growth inhibition incubated for 72 hrs by CLSI based susceptibility test; format: functional
[6] = test system: Cryptococcus neoformans; experiment: Antifungal activity against Cryptococcus neoformans ZKCC 2209 assessed as fungal growth inhibition incubated for 72 hrs by CLSI based susceptibility test; format: functional
[7] = test system: Aspergillus fumigatus; experiment: Antifungal activity against Aspergillus fumigatus KM8001 assessed as fungal growth inhibition incubated for 72 hrs by CLSI based susceptibility test; format: functional
[8] = test system: Candida albicans; experiment: Antifungal activity against FLC-resistant Candida albicans 632 assessed as fungal growth inhibition incubated for 72 hrs by CLSI based susceptibility test; format: functional
[9] = test system: Candida albicans; experiment: Antifungal activity against FLC-resistant Candida albicans 17# assessed as fungal growth inhibition incubated for 72 hrs by CLSI based susceptibility test; format: functional
[10] = test system: Candida albicans; experiment: Antifungal activity against FLC-resistant Candida albicans CaR assessed as fungal growth inhibition incubated for 72 hrs by CLSI based susceptibility test; format: functional
[11] = test system: Candida albicans; experiment: Antifungal activity against FLC-resistant Candida albicans 901 assessed as fungal growth inhibition incubated for 72 hrs by CLSI based susceptibility test; format: functional
[12] = test system: Candida albicans; experiment: Antifungal activity against FLC-resistant Candida albicans 904 assessed as fungal growth inhibition incubated for 72 hrs by CLSI based susceptibility test; format: functional
[13] = biological target: T1, Lanosterol 14-alpha demethylase; experiment: Inhibition of CYP51 in Candida albicans SC5314 using lanosterol as substrate incubated for 60 mins by HPLC analysis
[14] = test system: Candida albicans; experiment: Induction of mitochondrial membrane depolarization in Candida albicans SC5314 by JC-1 staining based flow cytometry (reference value: 12.51 %); format: functional
[15] = test system: Candida albicans; experiment: Induction of apoptosis in Candida albicans SC5314 assessed as apoptotic cells incubated for 48 hrs by annexin V-FITC/PI staining based flow cytometry (reference value: 2.12 %); format: functional
[16] = test system: Candida albicans; experiment: Induction of apoptosis in Candida albicans SC5314 assessed as necrotic cells incubated for 48 hrs by annexin V-FITC/PI staining based flow cytometry (reference value: 2.12 %); format: functional
[17] = test system: Candida albicans; experiment: Antifungal activity against Candida albicans 901 infected in BALB/c mouse assessed as reduction in fungal growth at 0.5 ug/g administered 6 times measured after 4 days by H and E staining based analysis; format: functional, organism-based; conditions: dose 0.5 µg/g, time 4.0 day
[18] = test system: Candida albicans; experiment: Antifungal activity against Candida albicans 901 infected in BALB/c mouse assessed as inhibition of fungal proliferation at 0.5 ug/g administered 6 times measured after 4 days in presence of Biphenyl isopropyl ester by Masson staining based analysis; format: functional, organism-based; conditions: dose 0.5 µg/g, time 4.0 day
[19] = test system: Candida albicans; experiment: Antifungal activity against Candida albicans 901 infected in BALB/c mouse assessed as inhibition of fungal proliferation at 0.5 ug/g administered 6 times measured after 4 days in presence of Biphenyl isopropyl ester by GMS staining based analysis; format: functional, organism-based; conditions: dose 0.5 µg/g, time 4.0 day
[20] = test system: Candida albicans; experiment: Antifungal activity against Candida albicans 901 infected in BALB/c mouse assessed as decrease in collagen fiber content at 0.5 ug/g administered 6 times measured after 4 days in presence of Biphenyl isopropyl ester by Masson staining based analysis; format: functional, organism-based; conditions: dose 0.5 µg/g, time 4.0 day
[21] = test system: Candida albicans; experiment: Antifungal activity against Candida albicans 901 infected in BALB/c mouse assessed as decrease in collagen fiber content at 0.5 ug/g administered 6 times measured after 4 days in presence of Biphenyl isopropyl ester by GMS staining based analysis; format: functional, organism-based; conditions: dose 0.5 µg/g, time 4.0 day
[22] = test system: Candida albicans; experiment: Antifungal activity against Candida albicans 901 infected in BALB/c mouse assessed as repair of tissue damage at 0.5 ug/g administered 6 times measured after 4 days in presence of Biphenyl isopropyl ester by Masson staining based analysis; format: functional, organism-based; conditions: dose 0.5 µg/g, time 4.0 day
[23] = test system: Candida albicans; experiment: Antifungal activity against Candida albicans 901 infected in BALB/c mouse assessed as repair of tissue damage at 0.5 ug/g administered 6 times measured after 4 days in presence of Biphenyl isopropyl ester by GMS staining based analysis; format: functional, organism-based; conditions: dose 0.5 µg/g, time 4.0 day
[24] = Toxicity in BALB/c mouse infected with Candida albicans 901 assessed as pathological change in heart at 0.5 ug/g administered 6 times measured after 4 days in presence of Biphenyl isopropyl ester by H and E staining based analysis; format: tissue-based; conditions: in vivo, 96 h, dose 0.5 µg/g, time 4 day
[25] = Toxicity in BALB/c mouse infected with Candida albicans 901 assessed as pathological change in lung at 0.5 ug/g administered 6 times measured after 4 days in presence of Biphenyl isopropyl ester by H and E staining based analysis; format: tissue-based; conditions: in vivo, 96 h, dose 0.5 µg/g, time 4 day
[26] = Toxicity in BALB/c mouse infected with Candida albicans 901 assessed as pathological change in spleen at 0.5 ug/g administered 6 times measured after 4 days in presence of Biphenyl isopropyl ester by H and E staining based analysis; format: tissue-based; conditions: in vivo, 96 h, dose 0.5 µg/g, time 4 day
[27] = Toxicity in BALB/c mouse infected with Candida albicans 901 assessed as pathological change in liver at 0.5 ug/g administered 6 times measured after 4 days in presence of Biphenyl isopropyl ester by H and E staining based analysis; format: tissue-based; conditions: in vivo, 96 h, dose 0.5 µg/g, time 4 day
[28] = Toxicity in BALB/c mouse infected with Candida albicans 901 assessed as pathological change in kidney at 0.5 ug/g administered 6 times measured after 4 days in presence of Biphenyl isopropyl ester by H and E staining based analysis; format: tissue-based; conditions: in vivo, 96 h, dose 0.5 µg/g, time 4 day
[29] = test system: Mus musculus; experiment: Antiinflammatory activity in BALB/c mouse infected with Candida albicans 901 assessed as decrease in INF-gamma level at 0.5 ug/g administered 6 times measured after 4 days by Western blot analysis; format: functional, organism-based; conditions: dose 0.5 µg/g, time 4.0 day
[30] = test system: Mus musculus; experiment: Antiinflammatory activity in BALB/c mouse infected with Candida albicans 901 assessed as decrease in NLRP3 level at 0.5 ug/g administered 6 times measured after 4 days by Western blot analysis; format: functional, organism-based; conditions: dose 0.5 µg/g, time 4.0 day
[31] = test system: Mus musculus; experiment: Antiinflammatory activity in BALB/c mouse infected with Candida albicans 901 assessed as decrease in kappaB-p65 level at 0.5 ug/g administered 6 times measured after 4 days by Western blot analysis; format: functional, organism-based; conditions: dose 0.5 µg/g, time 4.0 day
[32] = test system: Candida albicans; experiment: Induction of immunity in BALB/c mouse infected with Candida albicans 901 assessed as decrease in PD-L1 level at 0.5 ug/g administered 6 times measured after 4 days by Western blot analysis; format: functional, organism-based; conditions: dose 0.5 µg/g, time 4.0 day
[33] = test system: Candida albicans; experiment: Induction of immunity in BALB/c mouse infected with Candida albicans 901 assessed as decrease in PD-L1 level at 0.5 ug/g administered 6 times measured after 4 days in presence of Biphenyl isopropyl ester by Western blot analysis; format: functional, organism-based; conditions: dose 0.5 µg/g, time 4.0 day
[34] = test system: Candida albicans; experiment: Induction of immunity in BALB/c mouse infected with Candida albicans 901 assessed as decrease in PD-L1 level at 0.5 ug/g administered 6 times measured after 4 days by IHC analysis; format: functional, organism-based; conditions: dose 0.5 µg/g, time 4.0 day
[35] = test system: Candida albicans; experiment: Induction of immunity in BALB/c mouse infected with Candida albicans 901 assessed as decrease in PD-L1 level at 0.5 ug/g administered 6 times measured after 4 days in presence of Biphenyl isopropyl ester by IHC analysis; format: functional, organism-based; conditions: dose 0.5 µg/g, time 4.0 day

Structure (SMILES): CC(=O)N1CCN(c2ccc(OCC3COC(Cn4ccnc4)(c4ccc(Cl)cc4Cl)O3)cc2)CC1 (stereo not given) [KETOCONAZOLE]
- Activity [1]: 5.07%
- Activity [2]: 13.06%
- MIC50 [3]: 0.25 µg/mL (≈ 0.47 µM)
- MIC50 [4]: 1 µg/mL (≈ 1.88 µM)
- MIC50 [5]: 0.5 µg/mL (≈ 0.941 µM)
- MIC50 [6]: 4 µg/mL (≈ 7.53 µM)
- MIC50 [7]: 4 µg/mL (≈ 7.53 µM)
- MIC50 [8]: ≥ 8 µg/mL
- MIC50 [9]: 4 µg/mL (≈ 7.53 µM)
- MIC50 [10]: ≥ 8 µg/mL
- MIC50 [11]: 4 µg/mL (≈ 7.53 µM)
- MIC50 [12]: 4 µg/mL (≈ 7.53 µM)
- IC50 [13]: 130 nM
- Activity [14]: 34.74%
- Activity [15]: 25.91%
- Activity [16]: 25.91%
- Activity [17]: Active
- inhibition [18]: Active
- inhibition [19]: Active
- Activity [20]: Active
- Activity [21]: Active
- Activity [22]: Active
- Activity [23]: Active
- Activity [24]: Non-Toxic
- Activity [25]: Non-Toxic
- Activity [26]: Non-Toxic
- Activity [27]: Non-Toxic
- Activity [28]: Non-Toxic
- Activity [29]: inactive
- Activity [30]: inactive
- Activity [31]: inactive
- Activity [32]: Active
- Activity [33]: Active
- Activity [34]: Active
- Activity [35]: Active
